Experiment: xn = mol fraction of the nth substance listed
Details: 101 kPa

For CS(C)=O + CC(=O)[O-].CC[NH2+]CC, the speed of sound (298.15 K, x1 = 1) was 1496 m/s, the viscosity (298.15 K, x1 = 1) was 1.99 mPa·s and the speed of sound (303.15 K, x1 = 1) was 1472 m/s. It also gave a viscosity (303.15 K, x1 = 1) of 1.79 mPa·s, a speed of sound (308.15 K, x1 = 1) of 1460 m/s and a viscosity (308.15 K, x1 = 1) of 1.65 mPa·s.

In the case of CC(=O)[O-].CC[NH2+]CC + CS(C)=O, the speed of sound (298.15 K, x1 = 0.0144) was 1500 m/s, the viscosity (298.15 K, x1 = 0.0144) was 2.24 mPa·s and the speed of sound (298.15 K, x2 = 0) was 1608 m/s. The viscosity (298.15 K, x2 = 0) was 16.36 mPa·s, the speed of sound (298.15 K, x2 = 0.0253) was 1606 m/s and the viscosity (298.15 K, x2 = 0.0253) was 16.01 mPa·s. For the same compound, the speed of sound (298.15 K, x2 = 0.0627) was 1604 m/s, the viscosity (298.15 K, x2 = 0.0627) was 15.5 mPa·s and the speed of sound (298.15 K, x2 = 0.1132) was 1601 m/s. It also gave a viscosity (298.15 K, x2 = 0.1132) of 14.83 mPa·s, a speed of sound (298.15 K, x2 = 0.1535) of 1599 m/s and a viscosity (298.15 K, x2 = 0.1535) of 14.29 mPa·s. For the same compound, the speed of sound (298.15 K, x2 = 0.2458) was 1597 m/s, the viscosity (298.15 K, x2 = 0.2458) was 13.11 mPa·s and the speed of sound (298.15 K, x2 = 0.3244) was 1596 m/s. For the same compound, the viscosity (298.15 K, x2 = 0.3244) was 12.13 mPa·s, the speed of sound (298.15 K, x2 = 0.3701) was 1595 m/s and the viscosity (298.15 K, x2 = 0.3701) was 11.56 mPa·s. The speed of sound (298.15 K, x2 = 0.4864) was 1593 m/s, the viscosity (298.15 K, x2 = 0.4864) was 10.09 mPa·s and the speed of sound (298.15 K, x2 = 0.7253) was 1572 m/s. The viscosity (298.15 K, x2 = 0.7253) was 6.74 mPa·s, the speed of sound (298.15 K, x2 = 0.8406) was 1546 m/s and the viscosity (298.15 K, x2 = 0.8406) was 4.91 mPa·s. The speed of sound (298.15 K, x2 = 0.8923) was 1532 m/s, the viscosity (298.15 K, x2 = 0.8923) was 3.98 mPa·s and the speed of sound (298.15 K, x2 = 0.9248) was 1522 m/s. The viscosity (298.15 K, x2 = 0.9248) was 3.39 mPa·s, the speed of sound (298.15 K, x2 = 0.956) was 1513 m/s and the viscosity (298.15 K, x2 = 0.956) was 2.81 mPa·s. For the same compound, the speed of sound (303.15 K, x1 = 0.0144) was 1478 m/s, the viscosity (303.15 K, x1 = 0.0144) was 2.04 mPa·s and the speed of sound (303.15 K, x2 = 0) was 1604 m/s. The viscosity (303.15 K, x2 = 0) was 13.64 mPa·s, the speed of sound (303.15 K, x2 = 0.0627) was 1599 m/s and the viscosity (303.15 K, x2 = 0.0627) was 12.96 mPa·s. For the same compound, the speed of sound (303.15 K, x2 = 0.1132) was 1597 m/s, the viscosity (303.15 K, x2 = 0.1132) was 12.44 mPa·s and the speed of sound (303.15 K, x2 = 0.1535) was 1595 m/s. The viscosity (303.15 K, x2 = 0.1535) was 12.02 mPa·s, the speed of sound (303.15 K, x2 = 0.2023) was 1594 m/s and the viscosity (303.15 K, x2 = 0.2023) was 11.54 mPa·s. For the same compound, the speed of sound (303.15 K, x2 = 0.2458) was 1593 m/s, the viscosity (303.15 K, x2 = 0.2458) was 11.1 mPa·s and the speed of sound (303.15 K, x2 = 0.2814) was 1592 m/s. It also gave a viscosity (303.15 K, x2 = 0.2814) of 10.73 mPa·s, a speed of sound (303.15 K, x2 = 0.3244) of 1591 m/s and a viscosity (303.15 K, x2 = 0.3244) of 10.28 mPa·s. The speed of sound (303.15 K, x2 = 0.3701) was 1590 m/s, the viscosity (303.15 K, x2 = 0.3701) was 9.82 mPa·s and the speed of sound (303.15 K, x2 = 0.4864) was 1582 m/s. For the same compound, the viscosity (303.15 K, x2 = 0.4864) was 8.64 mPa·s, the speed of sound (303.15 K, x2 = 0.5897) was 1572 m/s and the viscosity (303.15 K, x2 = 0.5897) was 7.51 mPa·s. The speed of sound (303.15 K, x2 = 0.66) was 1564 m/s, the viscosity (303.15 K, x2 = 0.66) was 6.72 mPa·s and the speed of sound (303.15 K, x2 = 0.7851) was 1540 m/s. For the same compound, the viscosity (303.15 K, x2 = 0.7851) was 5.17 mPa·s, the speed of sound (303.15 K, x2 = 0.8923) was 1512 m/s and the viscosity (303.15 K, x2 = 0.8923) was 3.67 mPa·s. The speed of sound (303.15 K, x2 = 0.956) was 1491 m/s, the viscosity (303.15 K, x2 = 0.956) was 2.61 mPa·s and the speed of sound (303.15 K, x2 = 0.971) was 1485 m/s. It also gave a viscosity (303.15 K, x2 = 0.971) of 2.32 mPa·s, a speed of sound (308.15 K, x1 = 0.0144) of 1469 m/s and a viscosity (308.15 K, x1 = 0.0144) of 1.9 mPa·s. It also gave a speed of sound (308.15 K, x2 = 0) of 1599 m/s, a viscosity (308.15 K, x2 = 0) of 11.83 mPa·s and a speed of sound (308.15 K, x2 = 0.0253) of 1594 m/s. For the same compound, the viscosity (308.15 K, x2 = 0.0253) was 11.6 mPa·s, the speed of sound (308.15 K, x2 = 0.0627) was 1594 m/s and the viscosity (308.15 K, x2 = 0.0627) was 11.27 mPa·s. It also gave a speed of sound (308.15 K, x2 = 0.1132) of 1592 m/s, a viscosity (308.15 K, x2 = 0.1132) of 10.86 mPa·s and a speed of sound (308.15 K, x2 = 0.2023) of 1589 m/s. For the same compound, the viscosity (308.15 K, x2 = 0.2023) was 10.14 mPa·s, the speed of sound (308.15 K, x2 = 0.2458) was 1588 m/s and the viscosity (308.15 K, x2 = 0.2458) was 9.76 mPa·s. For the same compound, the speed of sound (308.15 K, x2 = 0.3244) was 1584 m/s, the viscosity (308.15 K, x2 = 0.3244) was 9.1 mPa·s and the speed of sound (308.15 K, x2 = 0.3701) was 1582 m/s. It also gave a viscosity (308.15 K, x2 = 0.3701) of 8.7 mPa·s, a speed of sound (308.15 K, x2 = 0.4864) of 1574 m/s and a viscosity (308.15 K, x2 = 0.4864) of 7.69 mPa·s. It also gave a speed of sound (308.15 K, x2 = 0.5897) of 1562 m/s, a viscosity (308.15 K, x2 = 0.5897) of 6.74 mPa·s and a speed of sound (308.15 K, x2 = 0.66) of 1554 m/s. For the same compound, the viscosity (308.15 K, x2 = 0.66) was 6.08 mPa·s, the speed of sound (308.15 K, x2 = 0.7253) was 1544 m/s and the viscosity (308.15 K, x2 = 0.7253) was 5.4 mPa·s. For the same compound, the speed of sound (308.15 K, x2 = 0.7851) was 1530 m/s, the viscosity (308.15 K, x2 = 0.7851) was 4.77 mPa·s and the speed of sound (308.15 K, x2 = 0.8406) was 1516 m/s. For the same compound, the viscosity (308.15 K, x2 = 0.8406) was 4.11 mPa·s, the speed of sound (308.15 K, x2 = 0.8923) was 1502 m/s and the viscosity (308.15 K, x2 = 0.8923) was 3.45 mPa·s. The speed of sound (308.15 K, x2 = 0.9248) was 1490 m/s, the viscosity (308.15 K, x2 = 0.9248) was 2.95 mPa·s and the speed of sound (308.15 K, x2 = 0.956) was 1480 m/s. For the same compound, the viscosity (308.15 K, x2 = 0.956) was 2.48 mPa·s, the speed of sound (308.15 K, x2 = 0.971) was 1474 m/s and the viscosity (308.15 K, x2 = 0.971) was 2.18 mPa·s.

Source: a compilation of properties of binary mixtures (doi:10.1016/j.molliq.2011.09.019)
